{"source": "patent US20060293307A1", "about": "“Oxazolidinone derivatives as antimicrobials” (priority 2002, published 2006)", "assay_in_all_cases": "MIC, agar incorporation method", "key": {"S. pneumoniae AB 21": {"tested_on": "S. pneumoniae AB 21", "assay_type": "cell-based, Streptococcus pneumoniae", "details": "S. No. 41, S. pneumoniae AB 21"}, "S. aureus (MRSA) ST450": {"tested_on": "S. aureus (MRSA) ST450", "assay_type": "cell-based, Staphylococcus aureus", "details": "S. No. 6, S. aureus (MRSA) ST450"}, "E. durans 581": {"tested_on": "E. durans 581", "assay_type": "cell-based", "details": "S. No. 24, E. durans 581"}, "Acinetobacter 9956": {"tested_on": "Acinetobacter 9956", "assay_type": "cell-based", "details": "S. No. 30, Acinetobacter 9956"}, "S. epidermidis 358": {"tested_on": "S. epidermidis 358", "assay_type": "cell-based, Staphylococcus epidermidis", "details": "S. No. 14, S. epidermidis 358"}, "S. pneumoniae AB 25": {"tested_on": "S. pneumoniae AB 25", "assay_type": "cell-based, Streptococcus pneumoniae", "details": "S. No. 45, S. pneumoniae AB 25"}, "S. pneumoniae CS 1687": {"tested_on": "S. pneumoniae CS 1687", "assay_type": "cell-based, Streptococcus pneumoniae", "details": "S. No. 44, S. pneumoniae CS 1687"}, "S. pneumoniae AB 34": {"tested_on": "S. pneumoniae AB 34", "assay_type": "cell-based, Streptococcus pneumoniae", "details": "S. No. 49, S. pneumoniae AB 34"}, "S. pneumoniae AB 31": {"tested_on": "S. pneumoniae AB 31", "assay_type": "cell-based, Streptococcus pneumoniae", "details": "S. No. 36, S. pneumoniae AB 31"}, "S. pneumoniae ATCC 49619": {"tested_on": "S. pneumoniae ATCC 49619", "assay_type": "cell-based, Streptococcus pneumoniae", "details": "S. No. 48, S. pneumoniae ATCC 49619"}, "[1]": {"tested_on": "S. epidermidis (MRSE)32965", "assay_type": "cell-based, Staphylococcus epidermidis", "details": "S. No. 13, S. epidermidis (MRSE)32965"}, "E. faecium 6A (VRE)": {"tested_on": "E. faecium 6A (VRE)", "assay_type": "cell-based, Enterococcus faecium", "details": "S. No. 21, E. faecium 6A (VRE)"}, "S. aureus SG 511": {"tested_on": "S. aureus SG 511", "assay_type": "cell-based, Staphylococcus aureus", "details": "S. No. 3, S. aureus SG 511"}, "S. haemo ATCC 29970": {"tested_on": "S. haemo ATCC 29970", "assay_type": "cell-based", "details": "S. No. 15, S. haemo ATCC 29970"}, "[2]": {"tested_on": "Serratia marcescens 12999", "assay_type": "cell-based", "details": "S. No. 29, Serratia marcescens 12999"}, "S. pneumoniae AB 22": {"tested_on": "S. pneumoniae AB 22", "assay_type": "cell-based, Streptococcus pneumoniae", "details": "S. No. 42, S. pneumoniae AB 22"}, "S. pneumoniae 217": {"tested_on": "S. pneumoniae 217", "assay_type": "cell-based, Streptococcus pneumoniae", "details": "S. No. 38, S. pneumoniae 217"}, "(MRSA) 562": {"tested_on": "(MRSA) 562", "assay_type": "cell-based, Staphylococcus aureus", "details": "S. No. 8, (MRSA) 562"}, "S. pneumoniae 1251": {"tested_on": "S. pneumoniae 1251", "assay_type": "cell-based, Streptococcus pneumoniae", "details": "S. No. 54, S. pneumoniae 1251"}, "S. aureus (Smith 49951)": {"tested_on": "S. aureus (Smith 49951)", "assay_type": "cell-based, Staphylococcus aureus", "details": "S. No. 9, S. aureus (Smith 49951)"}, "S. pneumoniae ATCC 6303": {"tested_on": "S. pneumoniae ATCC 6303", "assay_type": "cell-based, Streptococcus pneumoniae", "details": "S. No. 50, S. pneumoniae ATCC 6303"}, "E. coli 25922": {"tested_on": "E. coli 25922", "assay_type": "cell-based", "details": "S. No. 25, E. coli 25922"}, "S. pyogenes 25147": {"tested_on": "S. pyogenes 25147", "assay_type": "cell-based, Streptococcus pyogenes", "details": "S. No. 52, S. pyogenes 25147"}, "S. aureus ATCC29213": {"tested_on": "S. aureus ATCC29213", "assay_type": "cell-based, Staphylococcus aureus", "details": "S. No. 2, S. aureus ATCC29213"}, "S. pneumoniae CS1221": {"tested_on": "S. pneumoniae CS1221", "assay_type": "cell-based, Streptococcus pneumoniae", "details": "S. No. 34, S. pneumoniae CS1221"}, "S. epidermidis 823": {"tested_on": "S. epidermidis 823", "assay_type": "cell-based, Staphylococcus epidermidis", "details": "S. No. 12, S. epidermidis 823"}, "S. pneumoniae AB 14": {"tested_on": "S. pneumoniae AB 14", "assay_type": "cell-based, Streptococcus pneumoniae", "details": "S. No. 37, S. pneumoniae AB 14"}, "E. faecium 398(VRE)": {"tested_on": "E. faecium 398(VRE)", "assay_type": "cell-based, Enterococcus faecium", "details": "S. No. 22, E. faecium 398(VRE)"}, "Moraxella M1": {"tested_on": "Moraxella M1", "assay_type": "cell-based", "details": "S. No. 58, Moraxella M1"}, "Salmonella 205": {"tested_on": "Salmonella 205", "assay_type": "cell-based", "details": "S. No. 26, Salmonella 205", "in_short": "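Doubling dilutions of compound in DMSO were incorporated into Mueller-Hinton agar; 10^4 CFU/spot inoculated from 0.5 McFarland suspensions and incubated 18 h (24 h for MRSN studies). MIC = lowest concentration without visible growth; valid only when ATCC reference strains gave in-range MICs.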"}, "S. aureus (MRSA) 15187": {"tested_on": "S. aureus (MRSA) 15187", "assay_type": "cell-based, Staphylococcus aureus", "details": "S. No. 4, S. aureus (MRSA) 15187"}, "S. pneumoniae AB 16": {"tested_on": "S. pneumoniae AB 16", "assay_type": "cell-based, Streptococcus pneumoniae", "details": "S. No. 39, S. pneumoniae AB 16"}}}
{"substance": "(S)—N-[[3-[-3-Fluoro-4-[(5-nitro-2-thienyl)-3-methyl-1-piperazinyl]phenyl]-2-oxo-5-oxazolidinyl]methyl]acetamide [Compound No. 10]", "values": [{"measurement": "MIC", "setting": "S. pneumoniae AB 21", "result": 0.5, "unit": "µg/mL"}, {"measurement": "MIC", "setting": "S. aureus (MRSA) ST450", "result": 1, "unit": "µg/mL"}, {"measurement": "MIC", "setting": "E. durans 581", "result": 0.5, "unit": "µg/mL"}, {"measurement": "MIC", "setting": "Acinetobacter 9956", "result": ">8", "unit": "µg/mL"}, {"measurement": "MIC", "setting": "S. epidermidis 358", "result": 0.5, "unit": "µg/mL"}, {"measurement": "MIC", "setting": "S. pneumoniae AB 25", "result": 0.5, "unit": "µg/mL"}, {"measurement": "MIC", "setting": "S. pneumoniae CS 1687", "result": 0.5, "unit": "µg/mL"}, {"measurement": "MIC", "setting": "S. pneumoniae AB 34", "result": 1, "unit": "µg/mL"}, {"measurement": "MIC", "setting": "S. pneumoniae AB 31", "result": 0.5, "unit": "µg/mL"}, {"measurement": "MIC", "setting": "S. pneumoniae ATCC 49619", "result": 0.5, "unit": "µg/mL"}, {"measurement": "MIC", "setting": "[1]", "result": 0.5, "unit": "µg/mL"}, {"measurement": "MIC", "setting": "E. faecium 6A (VRE)", "result": 1, "unit": "µg/mL"}, {"measurement": "MIC", "setting": "S. aureus SG 511", "result": 0.5, "unit": "µg/mL"}, {"measurement": "MIC", "setting": "S. haemo ATCC 29970", "result": 0.25, "unit": "µg/mL"}, {"measurement": "MIC", "setting": "[2]", "result": ">8", "unit": "µg/mL"}, {"measurement": "MIC", "setting": "S. pneumoniae AB 22", "result": 0.5, "unit": "µg/mL"}, {"measurement": "MIC", "setting": "S. pneumoniae 217", "result": 0.5, "unit": "µg/mL"}, {"measurement": "MIC", "setting": "(MRSA) 562", "result": 1, "unit": "µg/mL"}, {"measurement": "MIC", "setting": "S. pneumoniae 1251", "result": 0.5, "unit": "µg/mL"}, {"measurement": "MIC", "setting": "S. aureus (Smith 49951)", "result": 1, "unit": "µg/mL"}, {"measurement": "MIC", "setting": "S. pneumoniae ATCC 6303", "result": 0.5, "unit": "µg/mL"}, {"measurement": "MIC", "setting": "E. coli 25922", "result": ">8", "unit": "µg/mL"}, {"measurement": "MIC", "setting": "S. pyogenes 25147", "result": 0.5, "unit": "µg/mL"}, {"measurement": "MIC", "setting": "S. aureus ATCC29213", "result": 1, "unit": "µg/mL"}, {"measurement": "MIC", "setting": "S. pneumoniae CS1221", "result": 0.5, "unit": "µg/mL"}, {"measurement": "MIC", "setting": "S. epidermidis 823", "result": 0.5, "unit": "µg/mL"}, {"measurement": "MIC", "setting": "S. pneumoniae AB 14", "result": 0.5, "unit": "µg/mL"}, {"measurement": "MIC", "setting": "E. faecium 398(VRE)", "result": 0.5, "unit": "µg/mL"}, {"measurement": "MIC", "setting": "Moraxella M1", "result": 2, "unit": "µg/mL"}, {"measurement": "MIC", "setting": "Salmonella 205", "result": ">8", "unit": "µg/mL"}, {"measurement": "MIC", "setting": "S. aureus (MRSA) 15187", "result": 1, "unit": "µg/mL"}, {"measurement": "MIC", "setting": "S. pneumoniae AB 16", "result": 0.5, "unit": "µg/mL"}]}
